Source: patent US20230129438A1, “IMMUNOMODULATING IMINE-OXAZOLINE AZALIDES” (Zoetis Services LLC, priority 2020, published 2023)

Legend:
IL-1β = assay: Bovine whole blood assay, IL-1β; assay type: cell-based; settings: drug concentration giving overstimulation of IL-1β over LPS (cellular toxicity signal)
Procedure: (§1) (protected from light) for 30 minutes.

TNF-α = assay: Bovine whole blood assay, LPS-induced TNF-α; assay type: cell-based; settings: LPS 1 μg/mL
Procedure: as §1

| IC50 (TNF-α) | Structure (SMILES) | IL-Iβ OS of LPS (IL-1β) |
| --- | --- | --- |
| 10 µM | CCCNC[C@]1(O)[C@H](C)O[C@@H](O[C@H]2[C@H](C)[C@@H](O[C@@H]3O[C@H](C)C[C@H]4[C@H]3OC(=Nc3ccc(OC)cc3)N4C)[C@](C)(O)C[C@@H](C)CN(C)[C@H](C)[C@@H](O)[C@](C)(O)[C@@H](CC)OC(=O)[C@@H]2C)C[C@@]1(C)OC (mixture of isomers) [Example A-30, (E/Z)-(2R,3S,4R,5R,8R,10R,11R,12S,13S,14R)-2-ethyl-3,4,10-trihydroxy-13-(((2R,4R,5S,6S)-5-hydroxy-4-methoxy-4,6-dimethyl-5-((propylamino)methyl)tetrahydro-2H-pyran-2-yl)oxy)-11-(((3aR,4S,6R,7aS)-2-((4-methoxyphenyl)imino)-1,6-dimethylhexahydro-2H-pyrano[4,3-d]oxazol-4-yl)oxy)-3,5,6,8,10,12,14-heptamethyl-1-oxa-6-azacyclopentadecan-15-one] | 16 µM |
| 7 µM | CCCNC[C@]1(O)[C@H](C)O[C@@H](O[C@H]2[C@H](C)[C@@H](O[C@@H]3O[C@H](C)C[C@H]4[C@H]3OC(=Nc3ccccc3)N4C)[C@](C)(O)C[C@@H](C)CN(CCC)[C@H](C)[C@@H](O)[C@](C)(O)[C@@H](CC)OC(=O)[C@@H]2C)C[C@@]1(C)OC (mixture of isomers) [Example A-34, (E/Z)-(2R,3S,4R,5R,8R,10R,11R,12S,13S,14R)-11-(((3aR,4S,6R,7aS)-1,6-dimethyl-2-(phenylimino)hexahydro-2H-pyrano[4,3-d]oxazol-4-yl)oxy)-2-ethyl-3,4,10-trihydroxy-13-(((2R,4R,5S,6S)-5-hydroxy-4-methoxy-4,6-dimethyl-5-((propylamino)methyl)tetrahydro-2H-pyran-2-yl)oxy)-3,5,8,10,12,14-hexamethyl-6-propyl-1-oxa-6-azacyclopentadecan-15-one] | 6 µM |
| 6 µM | CC[C@H]1OC(=O)[C@H](C)[C@@H](O[C@H]2C[C@@](C)(OC)[C@](O)(CN3CCN(CC)CC3)[C@H](C)O2)[C@H](C)[C@@H](O[C@@H]2O[C@H](C)C[C@H]3[C@H]2OC(=Nc2ccccc2)N3C)[C@](C)(O)C[C@@H](C)CN[C@H](C)[C@@H](O)[C@]1(C)O (mixture of isomers) [Example B-2, (E/Z)-(2R,3S,4R,5R,8R,10R,11R,12S,13S,14R)-11-(((3aR,4S,6R,7aS)-1,6-dimethyl-2-(phenylimino)hexahydro-2H-pyrano[4,3-d]oxazol-4-yl)oxy)-2-ethyl-13-(((2R,4R,5S,6S)-5-((4-ethylpiperazin-1-yl)methyl)-5-hydroxy-4-methoxy-4,6-dimethyltetrahydro-2H-pyran-2-yl)oxy)-3,4,10-trihydroxy-3,5,8,10,12,14-hexamethyl-1-oxa-6-azacyclopentadecan-15-one] | 13 µM |
| 15 µM | CCNC[C@]1(O)[C@H](C)O[C@@H](O[C@H]2[C@H](C)[C@@H](O[C@@H]3O[C@H](C)C[C@H]4[C@H]3OC(=Nc3ccc(OC)cc3)N4C)[C@](C)(O)C[C@@H](C)CN[C@H](C)[C@@H](O)[C@](C)(O)[C@@H](CC)OC(=O)[C@@H]2C)C[C@@]1(C)OC (mixture of isomers) [Example A-12, (E/Z)-(2R,3S,4R,5R,8R,10R,11R,12S,13S,14R)-2-ethyl-13-(((2R,4R,5S,6S)-5-((ethylamino)methyl)-5-hydroxy-4-methoxy-4,6-dimethyltetrahydro-2H-pyran-2-yl)oxy)-3,4,10-trihydroxy-11-(((3aR,4S,6R,7aS)-2-((4-methoxyphenyl)imino)-1,6-dimethylhexahydro-2H-pyrano[4,3-d]oxazol-4-yl)oxy)-3,5,8,10,12,14-hexamethyl-1-oxa-6-azacyclopentadecan-15-one] | 32 µM |
